Laboratory results taken from ChEMBL document CHEMBL1131866, “Stereoisomeric acylamidomorpholinium carnitine analogues: selective inhibitors of carnitine palmitoyltransferase I and II” (Bioorg Med Chem Lett, 1999).

Target: T1, Carnitine O-palmitoyltransferase 2, mitochondrial (Rattus norvegicus) (UniProt P18886)
T1 sequence (whole entry): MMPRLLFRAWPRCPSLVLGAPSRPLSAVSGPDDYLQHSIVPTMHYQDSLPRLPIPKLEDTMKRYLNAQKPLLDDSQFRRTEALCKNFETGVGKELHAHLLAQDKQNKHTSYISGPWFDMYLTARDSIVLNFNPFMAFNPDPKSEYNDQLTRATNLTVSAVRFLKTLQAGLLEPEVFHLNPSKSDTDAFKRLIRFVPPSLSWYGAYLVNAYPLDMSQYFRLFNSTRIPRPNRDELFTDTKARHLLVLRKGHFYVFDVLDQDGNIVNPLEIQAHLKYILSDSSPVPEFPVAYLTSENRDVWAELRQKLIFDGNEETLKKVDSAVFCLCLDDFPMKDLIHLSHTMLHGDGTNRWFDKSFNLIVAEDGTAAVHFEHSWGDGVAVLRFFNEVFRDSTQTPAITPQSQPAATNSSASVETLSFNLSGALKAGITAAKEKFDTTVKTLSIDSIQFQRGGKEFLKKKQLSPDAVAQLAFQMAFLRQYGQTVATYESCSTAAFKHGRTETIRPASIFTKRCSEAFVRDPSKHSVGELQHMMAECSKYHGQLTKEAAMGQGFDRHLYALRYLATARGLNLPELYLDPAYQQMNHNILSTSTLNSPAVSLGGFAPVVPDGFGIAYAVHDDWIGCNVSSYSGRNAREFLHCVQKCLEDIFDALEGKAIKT
Assay: Inhibitory activity against rat-liver mitochondrial Carnitine palmitoyl transferase II
Settings: concentration not given here

CCCCCCCCCCCCCC(=O)NC[C@H]1C[N+](C)(C)C[C@@H](CC(=O)[O-])O1
inhibition: 41%
